Reference: patent publication US20240228481A1, “NOVEL SULFONAMIDE SERIES OF QR2 INHIBITORS TO TACKLE OXIDATIVE STRESS AND COGNITIVE DECLINE” (CARMEL HAIFA UNIVERSITY ECONOMIC CORPORATION LTD., priority 2021, published 2024)
Values joined by “and” are separate entries in the source; they are usually repeats but may differ in a detail not shown here. Equal entries are not always repeated. Structures can show the parent of a compound that is named as a salt.

Key:
[1] = test system: THLE-2 cells; test: Cell toxicity assay (ATP depletion, CellTiter Glo); conditions: 72 h incubation, CellTiter Glo
Experimental: THLE-2 (CRL-2706™) were grown in the BEGM Bullet Kit (CC-3170) from Lonza. Besides the additives contained in the kit, the medium was further supplemented with 5 ng/mL EGF (Sigma), 70 ng/mL phosphoethanolamine (Sigma) and 10% FBS (Biological Industries). The plates for the THLE-2 needed to be pre-coated with a mixture of 0.01 mg/mL fibronectin, 0.05 mg/mL of PureCol™ EZ Gel Solution (Sigma) and 0.01 mg/mL of BSA dissolved in BEBM medium (Lonza). The coating medium was aspirated before seeding.
THLE-2 cells were exposed to the compounds in a 9-point, 2-fold dilution dose response series with a 100 μM as upper limit, for 72 h. Following the 72 h of exposure to the test compounds, cell viability was determined by measuring the concentration of cellular ATP (CellTiter Glo, Promega). The luminescence signal was measured on a Pherastar FS multi-mode plate reader (BMG Labtech). Each data point was tested in a triplicate.
First, toxicity was assessed in an ATP depletion assay, using THLE-2 cells following a 72 h exposure to a dose response of each of the tested compounds.

[2] = molecular target: T1, QR1 (NQO1) (Homo sapiens, UniProt P15559); test: Selectivity assay with QR1 in place of QR2, fluorescence readout; assay type: biochemical
T1 construct: purchased Sigma-Aldrich
T1 sequence (P15559 whole entry): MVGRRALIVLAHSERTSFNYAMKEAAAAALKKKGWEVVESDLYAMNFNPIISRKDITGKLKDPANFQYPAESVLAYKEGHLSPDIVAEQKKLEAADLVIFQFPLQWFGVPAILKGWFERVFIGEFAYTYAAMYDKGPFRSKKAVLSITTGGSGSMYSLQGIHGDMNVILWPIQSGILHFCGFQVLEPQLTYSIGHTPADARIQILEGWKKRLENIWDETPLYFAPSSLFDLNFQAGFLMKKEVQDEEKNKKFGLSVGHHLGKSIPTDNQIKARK

[3] = molecular target: T2, QR2 (Homo sapiens, UniProt P16083); test: QR2 enzymatic activity assay (menadione/BNAH), fluorescence readout; assay type: biochemical; parameters: purchased Sigma-Aldrich
T2 sequence (P16083 1-231): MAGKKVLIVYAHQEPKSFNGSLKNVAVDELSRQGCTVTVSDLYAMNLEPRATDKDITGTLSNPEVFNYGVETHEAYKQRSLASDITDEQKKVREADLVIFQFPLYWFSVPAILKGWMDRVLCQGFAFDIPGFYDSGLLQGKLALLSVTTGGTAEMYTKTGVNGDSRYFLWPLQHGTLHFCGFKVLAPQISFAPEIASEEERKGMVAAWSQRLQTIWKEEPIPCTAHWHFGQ

[4] = test system: HEK293T cells; test: XTT cell viability assay; assay type: cell-based; conditions: 3 h incubation, 20 nM-20 μM
Experimental: HEK293FT cells were cultured with penicillin-streptomycin antibiotics in Invitrogen DMEM (Thermo Fisher Scientific) with 10% fetal bovine serum and L-glutamine and grown to 80-90% confluence in 100 mm plates, while being passaged every 2-3 days. For the XTT assay (Biological Industries), cells were then collected, centrifuged, and resuspended in fresh minimum essential medium, and seeded at 50,000 cells/well in 96-well, poly-L-lysine-coated Nunc black, clear flat-bottomed plates (Thermo Fisher Scientific). The next day, the cells were treated with increasing doses of QR2 inhibitors or vehicle for 3 h, and the XTT assay was then carried out as according to the manufacturer's instructions.

[5] = molecular target: T1, QR1 (NQO1); test: Selectivity assay with QR1 in place of QR2, absorbance readout; assay type: biochemical

SMILES | median lethal dose (LD50) in THLE cells [1] | IC50 [2] [µM] | IC50 [3] [µM] | toxicity in XTT assay [4] | IC50 [5] [µM]
Cc1ccc(-c2cn3cccc(C)c3n2)cc1S(=O)(=O)N1CCNCC1 [YB-537, 8-methyl-2-(4-methyl-3-(piperazin-1-ylsulfonyl)phenyl)imidazo[1,2-a]pyridine hydrochloride] | > 100 µM | 18.4 | 0.03 | no toxicity | –
Cc1cccn2cc(-c3cccc(S(=O)(=O)N4CCC(C)CC4)c3)nc12 [YB-800] | 78.4 µM and 78.401 µM | > 9.99 | 0.03 | no toxicity | > 9.99
